Results taken from patent US20230011571A1, “SMALL MOLECULE FURIN INHIBITORS FOR TREATING INFECTIOUS DISEASES” (BP Asset V, Inc., priority 2019, published 2023).

Assays:
Assay type in all cases: cell-based
[1] = tested on: Chikungunya virus (CHIKV); assay: microbe, parasite or virus in culture; settings: Chikungunya virus, Vero, 48 h, read-out: Percent viral inhibition CHKV
dengue virus (DENV) = assay: microbe, parasite or virus in culture; settings: Dengue virus, Vero, 120 h, read-out: Percent viral inhibition DENY
Marburg virus (MARV) = assay: organism not typed; settings: Vero, 72 h, read-out: Percent viral inhibition MARV

C[C@@H](O)CN1CCN(c2ncc(Oc3cc(CN4CCC(CC(=O)O)CC4)cc(-c4cc(Cl)cc(Cl)c4)n3)cn2)CC1 [Example 298, (R)-2-(1-((2-(3,5-dichlorophenyl)-6-((2-(4-(2-hydroxypropyl)piperazin-1-yl)pyrimidin-5-yl)oxy)pyridin-4-yl)methyl)piperidin-4-yl)acetic acid] was tested, and the inhibition at 1 µM [1] was 20.7%, the inhibition at 1 µM (dengue virus (DENV)) was 57% and the inhibition at 1 µM (Marburg virus (MARV)) was 55.1%.
O=C(O)CC1CCN(Cc2cc(Oc3ccc(N4CCN(CCO)CC4)nc3)nc(-c3cc(Cl)cc(Cl)c3)c2)CC1 [Example 300, 2-(1-((2-(3,5-dichlorophenyl)-6-((6-(4-(2-hydroxyethyl)piperazin-1-yl)pyridin-3-yl)oxy)pyridin-4-yl)methyl)piperidin-4-yl)acetic acid] gave an inhibition at 1 µM [1] of 18.2%, an inhibition at 1 µM (dengue virus (DENV)) of 0% and an inhibition at 1 µM (Marburg virus (MARV)) of 45%.
Work on CC(CC1CCN(Cc2cc(Oc3cnc(N4CCN(C[C@@H](C)O)CC4)nc3)nc(-c3cc(Cl)cc(Cl)c3)c2)CC1)C(=O)O (stereo partly drawn) [Example 301, 3-(1-((2-(3,5-dichlorophenyl)-6-((2-(4-((R)-2-hydroxypropyl)piperazin-1-yl)pyrimidin-5-yl)oxy)pyridin-4-yl)methyl)piperidin-4-yl)-2-methylpropanoic acid] yielded an inhibition at 1 µM [1] of 28.8%, an inhibition at 1 µM (dengue virus (DENV)) of 56.1% and an inhibition at 1 µM (Marburg virus (MARV)) of 68.4%.
CC(=O)NCC1CCN(Cc2cc(Oc3cnc(N4CCN(C[C@@H](C)O)CC4)nc3)nc(-c3cc(Cl)cc(Cl)c3)c2)CC1 [Example 302, (R)-N-((1-((2-(3,5-dichlorophenyl)-6-((2-(4-(2-hydroxypropyl)piperazin-1-yl)pyrimidin-5-yl)oxy)pyridin-4-yl)methyl)piperidin-4-yl)methyl)acetamide] showed an inhibition at 1 µM [1] of 39%, an inhibition at 1 µM (dengue virus (DENV)) of 26.6% and an inhibition at 1 µM (Marburg virus (MARV)) of 56.9%.
With CC(=O)NCC1CCN(Cc2cc(Oc3cnc(N4CCN(CC(C)(C)O)CC4)nc3)nc(-c3cc(Cl)cc(Cl)c3)c2)CC1 [Example 303, N-((1-((2-(3,5-dichlorophenyl)-6-((2-(4-(2-hydroxy-2-methylpropyl)piperazin-1-yl)pyrimidin-5-yl)oxy)pyridin-4-yl)methyl)piperidin-4-yl)methyl)acetamide] the inhibition at 1 µM [1] was 33.4%, the inhibition at 1 µM (dengue virus (DENV)) was 34.4% and the inhibition at 1 µM (Marburg virus (MARV)) was 49.6%.
Work on CC(=O)NCC1CCN(Cc2cc(Oc3cnc(N4CCN(CC(O)CF)CC4)nc3)nc(-c3cc(Cl)cc(Cl)c3)c2)CC1 (stereo not drawn) [Example 304, N-((1-((2-(3,5-dichlorophenyl)-6-((2-(4-(3-fluoro-2-hydroxypropyl)piperazin-1-yl)pyrimidin-5-yl)oxy)pyridin-4-yl)methyl)piperidin-4-yl)methyl)acetamide] yielded an inhibition at 1 µM [1] of 0%, an inhibition at 1 µM (dengue virus (DENV)) of 41.8% and an inhibition at 1 µM (Marburg virus (MARV)) of 12.4%.
O=C(O)CC1CCN(Cc2cc(Oc3cnc(N4CCN(CCO)CC4)nc3)nc(-c3cc(Cl)cc(Cl)c3)c2)CC1 [Example 306, 2-(1-((2-(3,5-dichlorophenyl)-6-((2-(4-(2-hydroxyethyl)piperazin-1-yl)pyrimidin-5-yl)oxy)pyridin-4-yl)methyl)piperidin-4-yl)acetic acid] gave an inhibition at 1 µM [1] of 13.6%, an inhibition at 1 µM (dengue virus (DENV)) of 7.27% and an inhibition at 1 µM (Marburg virus (MARV)) of 51.1%.
CNC(=O)OCC1CCN(Cc2cc(Oc3cnc(N4CCN(C[C@@H](C)O)CC4)nc3)nc(-c3cc(Cl)cc(Cl)c3)c2)CC1 [Example 308, (R)-(1-((2-(3,5-dichlorophenyl)-6-((2-(4-(2-hydroxypropyl)piperazin-1-yl)pyrimidin-5-yl)oxy)pyridin-4-yl)methyl)piperidin-4-yl)methylmethylcarbamate] gave an inhibition at 1 µM [1] of 0%, an inhibition at 1 µM (dengue virus (DENV)) of 0% and an inhibition at 1 µM (Marburg virus (MARV)) of 23.7%.
With CNC(=O)NCC1CCN(Cc2cc(Oc3cnc(N4CCN(C[C@@H](C)O)CC4)nc3)nc(-c3cc(Cl)cc(Cl)c3)c2)CC1 [Example 310, (R)-1-((1-((2-(3,5-dichlorophenyl)-6-((2-(4-(2-hydroxypropyl)piperazin-1-yl)pyrimidin-5-yl)oxy)pyridin-4-yl)methyl)piperidin-4-yl)methyl)-3-methylurea] the inhibition at 1 µM [1] was 2.85%, the inhibition at 1 µM (dengue virus (DENV)) was 19.3% and the inhibition at 1 µM (Marburg virus (MARV)) was 18%.
COC(=O)NCC1CCN(Cc2cc(Oc3cnc(N4CCN(CCO)CC4)nc3)nc(-c3cc(Cl)cc(Cl)c3)c2)CC1 [Example 311, methyl((1-((2-(3,5-dichlorophenyl)-6-((2-(4-(2-hydroxyethyl)piperazin-1-yl)pyrimidin-5-yl)oxy)pyridin-4-yl)methyl)piperidin-4-yl)methyl)carbamate] gave an inhibition at 1 µM [1] of 8.41%, an inhibition at 1 µM (dengue virus (DENV)) of 0% and an inhibition at 1 µM (Marburg virus (MARV)) of 17.5%.
O=C(O)CCC1CCN(Cc2cc(Oc3ccc(N4CCN(CCO)CC4)nc3)nc(-c3cc(Cl)cc(Cl)c3)c2)CC1 [Example 314, 3-(1-((2-(3,5-dichlorophenyl)-6-((6-(4-(2-hydroxyethyl)piperazin-1-yl)pyridin-3-yl)oxy)pyridin-4-yl)methyl)piperidin-4-yl)propanoic acid] gave an inhibition at 1 µM [1] of 32%, an inhibition at 1 µM (dengue virus (DENV)) of 7.86% and an inhibition at 1 µM (Marburg virus (MARV)) of 52.1%.
CC(=O)NCC1CCN(Cc2cc(Oc3cnc(N4CCN(CC(O)C(=O)O)CC4)nc3)nc(-c3cc(Cl)cc(Cl)c3)c2)CC1 (stereo not drawn) [Example 316, 3-(4-(5-((4-((4-(acetamidomethyl)piperidin-1-yl)methyl)-6-(3,5-dichlorophenyl)pyridin-2-yl)oxy)pyrimidin-2-yl)piperazin-1-yl)-2-hydroxypropanoic acid] was tested, and the inhibition at 1 µM [1] was 30.6%, the inhibition at 1 µM (dengue virus (DENV)) was 55.9% and the inhibition at 1 µM (Marburg virus (MARV)) was 54.4%.
Work on C[C@@H](O)CN1CCN(c2ncc(Oc3cc(CN4CCC(OCC(=O)O)CC4)cc(-c4cc(Cl)cc(Cl)c4)n3)cn2)CC1 [Example 317, (R)-2-((1-((2-(3,5-dichlorophenyl)-6-((2-(4-(2-hydroxypropyl)piperazin-1-yl)pyrimidin-5-yl)oxy)pyridin-4-yl)methyl)piperidin-4-yl)oxy)acetic acid] yielded an inhibition at 1 µM [1] of 14.8%, an inhibition at 1 µM (dengue virus (DENV)) of 20.2% and an inhibition at 1 µM (Marburg virus (MARV)) of 53.6%.
Compound CN1CCN(c2ncc(Oc3cc(CN4CCC(CB(O)O)CC4)cc(-c4cc(Cl)cc(Cl)c4)n3)cn2)CC1 [Example 318, ((1-((2-(3,5-dichlorophenyl)-6-((2-(4-methylpiperazin-1-yl)pyrimidin-5-yl)oxy)pyridin-4-yl)methyl)piperidin-4-yl)methyl)boronic acid] has an inhibition at 1 µM [1] of 15.3%, an inhibition at 1 µM (dengue virus (DENV)) of 44.6% and an inhibition at 1 µM (Marburg virus (MARV)) of 31.6%.
For CN1CCN(c2ncc(Oc3cc(CN4CCC(CP(C)(C)=O)CC4)cc(-c4cc(Cl)cc(Cl)c4)n3)cn2)CC1 [Example 320, ((1-((2-(3,5-dichlorophenyl)-6-((2-(4-methylpiperazin-1-yl)pyrimidin-5-yl)oxy)pyridin-4-yl)methyl)piperidin-4-yl)methyl)dimethylphosphineoxide], the inhibition at 1 µM [1] was 17.5%, the inhibition at 1 µM (dengue virus (DENV)) was 15.3% and the inhibition at 1 µM (Marburg virus (MARV)) was 52.5%.
Work on CN1CCN(c2ncc(Oc3cc(CN4CC[C@@H]5[C@H](CC4)[C@H]5C(=O)O)cc(-c4cc(Cl)cc(Cl)c4)n3)cn2)CC1 [Example 321, (1R,7S,8r)-4-((2-(3,5-dichlorophenyl)-6-((2-(4-methylpiperazin-1-yl)pyrimidin-5-yl)oxy)pyridin-4-yl)methyl)-4-azabicyclo[5.1.0]octane-8-carboxylic acid] yielded an inhibition at 1 µM [1] of 23.8%, an inhibition at 1 µM (dengue virus (DENV)) of 27.3% and an inhibition at 1 µM (Marburg virus (MARV)) of 43.4%.
Work on CN1CCN(c2ncc(Oc3cc(CN4CCC(CCB(O)O)CC4)cc(-c4cc(Cl)cc(Cl)c4)n3)cn2)CC1 [Example 323, (2-(1-((2-(3,5-dichlorophenyl)-6-((2-(4-methylpiperazin-1-yl)pyrimidin-5-yl)oxy)pyridin-4-yl)methyl)piperidin-4-yl)ethyl)boronic acid] yielded an inhibition at 1 µM [1] of 5.87%, an inhibition at 1 µM (dengue virus (DENV)) of 0% and an inhibition at 1 µM (Marburg virus (MARV)) of 30.7%.
COC(=O)NC(=O)NCC1CCN(Cc2cc(Oc3cnc(N4CCN(C)CC4)nc3)nc(-c3cc(Cl)cc(Cl)c3)c2)CC1 [Example 325, N-1-((1-((2-(3,5-dichlorophenyl)-6-((2-(4-methylpiperazin-1-yl)pyrimidin-5-yl)oxy)pyridin-4-yl)methyl)piperidin-4-yl)methyl)-N′-methoxyl-carbonylurea] showed an inhibition at 1 µM [1] of 0%, an inhibition at 1 µM (dengue virus (DENV)) of 5.08% and an inhibition at 1 µM (Marburg virus (MARV)) of 0%.
In the case of CN1CCN(c2ncc(Oc3cc(CN4CCC(CNC(=O)NS(C)(=O)=O)CC4)cc(-c4cc(Cl)cc(Cl)c4)n3)cn2)CC1 [Example 326, N-(((1-((2-(3,5-dichlorophenyl)-6-((2-(4-methylpiperazin-1-yl)pyrimidin-5-yl)oxy)pyridin-4-yl)methyl)piperidin-4-yl)methyl)carbamoyl)methane-sulfonamide], the inhibition at 1 µM [1] is reported as 22.7%, the inhibition at 1 µM (dengue virus (DENV)) is reported as 45.5% and the inhibition at 1 µM (Marburg virus (MARV)) is reported as 63.9%.
Compound CC(=O)NC(=O)NCC1CCN(Cc2cc(Oc3cnc(N4CCN(C)CC4)nc3)nc(-c3cc(Cl)cc(Cl)c3)c2)CC1 [Example 327, N-(((1-((2-(3,5-dichlorophenyl)-6-((2-(4-methylpiperazin-1-yl)pyrimidin-5-yl)oxy)pyridin-4-yl)methyl)piperidin-4-yl)methyl)carbamoyl)acetamide] has an inhibition at 1 µM [1] of 0%, an inhibition at 1 µM (dengue virus (DENV)) of 0% and an inhibition at 1 µM (Marburg virus (MARV)) of 63.8%.
CN1CCN(c2ncc(Oc3cc(CN4CCC(NC(=O)NS(C)(=O)=O)CC4)cc(-c4cc(Cl)cc(Cl)c4)n3)cn2)CC1 [Example 328, N-((1-((2-(3,5-dichlorophenyl)-6-((2-(4-methylpiperazin-1-yl)pyrimidin-5-yl)oxy)pyridin-4-yl)methyl)piperidin-4-yl)carbamoyl)methanesulfonamide] gave an inhibition at 1 µM [1] of 37.5%, an inhibition at 1 µM (dengue virus (DENV)) of 55.8% and an inhibition at 1 µM (Marburg virus (MARV)) of 49.5%.
For CN1CCN(c2ncc(Oc3cc(CN4CCC(NC(N)=O)CC4)cc(-c4cc(Cl)cc(Cl)c4)n3)cn2)CC1 [Example 329, 1-(1-((2-(3,5-dichlorophenyl)-6-((2-(4-methylpiperazin-1-yl)pyrimidin-5-yl)oxy)pyridin-4-yl)methyl)piperidin-4-yl)urea], the inhibition at 1 µM [1] was 22.2%, the inhibition at 1 µM (dengue virus (DENV)) was 19.2% and the inhibition at 1 µM (Marburg virus (MARV)) was 42.3%.
